Measured values as given in US5191073A, “Chromogenic merocyanine enzyme substrates” (priority 1992, dated 1993).

Legend:
[1] = Study of Chromogenic Substrate Properties: absorbance maxima, shift, extinction coefficient (Table D); format: physicochemical; conditions: for λ max Chromogen / λ max Substrate: colour in words where no value; for ε × 10^3 Chromogen / ε × 10^3 Substrate: values are ε × 10^3; for λ max Shift: shift from substrate to chromogen
[2] = system: β-galactosidase; test: Study of Chromogenic Substrate Properties: enzyme turnover, Km and Kcat (Table D); format: biochemical
[3] = Study of Chromogenic Substrate Properties: pKa (Table D); format: physicochemical
[4] = system: β-galactosidase; test: colour change of reaction mixture or extract on treatment with β-galactosidase; format: biochemical
Procedure: 3-Ethyl-2-(4'-β-D-galactopyranosyloxynaphthyl-1'-vinylene)-benzothiazolium iodide (20)--Approximately equal amounts of 4-(β-D-galactopyranosyloxy) -1-naphthaldehyde (5) and 2-methylbenzothiazole ethiodide (8) (H. Richter & R. L. Dresser, supra) were heated at reflux for about 1 minute in ethanol containing a small amount of piperidine. The initially colorless mixture became red-orange during this time. The presence of (20) in the reaction mixture was determined by mixing a portion of the reaction mixture with an equal amount of dimethylformamide, diluting this with 0.1M phosphate buffer pH=7.0, and then treating the resulting solution with β-galactosidase.
3-Ethyl-2-(6'-β-D-galactopyranosyloxynaphthyl-2'-vinylene)-benzoselenazolium iodide (24)--A mixture of 6-(β-D-galactopyranosyloxy)-2-naphthaldehyde (6) (34 mg, 0.1 mmole), 2-methylbenzoselenazole ethiodide (12) (H. Richter & R. L. Dresser, supra) (35 mg, 0.1 mmole) and 0.5 mL of anhydrous pyridine was heated in a 70° C. oil bath for 20 hours.
1-Ethyl-4-(4'-β-D-galactopyranosyloxynaphthyl-1'-vinylene)-quinoliniumiodide (29)--A mixture of 4-(β-D-galactopyranosyloxy)-naphthaldehyde (5) (34 mg, 0.1 mmole), lepidine ethiodide (28) (H. Richter & R. L. Dresser, supra) (30 mg, 0.1 mmole) and 0.5 mL of anhydrous pyridine was heated in a 70° C. oil bath for 3 hours. Then an additional of 60 mg of lepidine ethiodide (28), was added and the reaction mixture was allowed to react in the 70° C. oil bath for a total of 20 hours.

Q: What does the source list for `CC[N+]1=C(C=Cc2ccc(O[C@@H]3O[C@H](CO)[C@H](O)[C@H](O)[C@H]3O)cc2)C(C)(C)c2ccccc21` [Compound 16, 1-Ethyl-2-(4'-β-D-galactopyranosyloxystyryl)-3,3-dimethylindolenium iodide]?
A: λ max Chromogen [1]: 522; ε × 10^3 Chromogen [1]: 45.0; λ max Shift [1]: 116; λ max Substrate [1]: 406; ε × 10^3 Substrate [1]: 25.3; Kcat [2]: 1.43 × 10^3 mole/min per mole active site; Km [2]: 18 µM; pKa [3]: 7.3

Q: Which results are given for `CC[N+]1=C(C=Cc2ccc(O[C@@H]3O[C@H](CO)[C@H](O)[C@H](O)[C@H]3O)c3ccccc23)C(C)(C)c2ccccc21` [Compound 17, 1-Ethyl-2-(4'-β-D-galactopyranosyloxynaphthyl-1-vinylene)-3,3-dimethylindolinium iodide]?
A: λ max Chromogen [1]: 580; ε × 10^3 Chromogen [1]: 82.0; λ max Shift [1]: 124; λ max Substrate [1]: 456; ε × 10^3 Substrate [1]: 28.0; Kcat [2]: 7.8 × 10^3 mole/min per mole active site; Km [2]: 90 µM; pKa [3]: 6

Q: Which “λ max Chromogen” value [1] does the source give for `CC[N+]1=C(C=Cc2ccc3cc(O[C@@H]4O[C@H](CO)[C@H](O)[C@H](O)[C@H]4O)ccc3c2)C(C)(C)c2ccccc21` [Compound 18, 1-Ethyl-2-(6'-β-D-galactopyranosyloxynaphthyl-2'-vinylene)-3,3-dimethylindolenium iodide] here?
A: The value was 530.

Q: And the “λ max Shift” value [1]?
A: The value was 100.

Q: What about the “λ max Substrate” value [1] of the same compound?
A: The value was 430.

Q: And the “ε × 10^3 Substrate” value [1]?
A: Its value is 32.2.

Q: What about the Kcat [2] of the same compound?
A: The Kcat was 1.3 × 10^4 mole/min per mole active site.

Q: And the Km [2]?
A: Its Km is 80 µM.

Q: And the pKa [3]?
A: Its pKa is 8.3.

Q: With `CC[n+]1c(C=Cc2ccc(O[C@@H]3O[C@H](CO)[C@H](O)[C@H](O)[C@H]3O)cc2)sc2ccccc21.[Cl-]` [Compound 19, 3-Ethyl-2-(4'-β-D-galactopyranosyloxystyryl) benzothiazolium chloride] as the compound, how does the “λ max Chromogen” value [1] read?
A: The value was 492.

Q: And the “ε × 10^3 Chromogen” value [1]?
A: The value was 43.0.

Q: What about the “λ max Shift” value [1] of the same compound?
A: Its value is 99.

Q: What about the “λ max Substrate” value [1] of the same compound?
A: Its value is 393.

Q: And the Kcat [2]?
A: Its Kcat is 3.04 × 10^3 mole/min per mole active site.

Q: And the Km [2]?
A: The Km was 17 µM.

Q: And the pKa [3]?
A: The pKa was 7.6.

Q: With `CC[n+]1c(C=Cc2ccc(O[C@@H]3O[C@H](CO)[C@H](O)[C@H](O)[C@H]3O)c3ccccc23)sc2ccccc21` [Compound 20, 3-Ethyl-2-(4'-β-D-galactopyranosyloxynaphthyl-1'-vinylene)-benzothiazolium iodide] as the compound, how does the “λ max Chromogen” value [1] read?
A: The value was “violet”.

Q: What about the “λ max Substrate” value [1] of the same compound?
A: Its value is “yellow”.

Q: What about the “colour change on addition of β-galactosidase” value ([4]; dimethylformamide diluted with 0.1M phosphate buffer pH=7.0) of the same compound?
A: Its value is “turned from yellow in color to violet”.

Q: With `CC[n+]1c(C=Cc2ccc(O[C@@H]3O[C@H](CO)[C@H](O)[C@H](O)[C@H]3O)c3ccccc23)sc2cc(OC)ccc21` [Compound 21, 3-Ethyl-2-(4'-β-D-galactopyranosyloxynaphthyl-1'-vinylene)-6-methoxybenzothiazolium iodide] as the compound, how does the “λ max Chromogen” value [1] read?
A: The value was 598.

Q: What about the “ε × 10^3 Chromogen” value [1] of the same compound?
A: The value was 80.1.

Q: And the “λ max Shift” value [1]?
A: Its value is 176.

Q: What about the “λ max Substrate” value [1] of the same compound?
A: Its value is 422.

Q: And the “ε × 10^3 Substrate” value [1]?
A: The value was 10.5.

Q: What about the Kcat [2] of the same compound?
A: Its Kcat is 2.8 × 10^3 mole/min per mole active site.

Q: And the Km [2]?
A: The Km was 430 µM.

Q: What about the pKa [3] of the same compound?
A: The pKa was 6.6.

Q: For `C[n+]1c(/C=C/c2ccc(O[C@@H]3O[C@H](CO)[C@H](O)[C@H](O)[C@H]3O)c3ccccc23)sc2ccc3ccccc3c21` [Compound 22, 2-(4'-β-D-galactopyranosyloxynaphthyl-1'-vinylene)-3-methyl-β-naphthothiazolium iodide], which “λ max Chromogen” value [1] is on record?
A: The value was 610.

Q: And the “λ max Shift” value [1]?
A: Its value is 140.

Q: And the “λ max Substrate” value [1]?
A: Its value is 470.

Q: What about the pKa [3] of the same compound?
A: The pKa was 7.

Q: What does the source list for `CC[n+]1c(C=Cc2ccc(O[C@@H]3O[C@H](CO)[C@H](O)[C@H](O)[C@H]3O)c3ccccc23)sc2ccc(C)cc21` [Compound 23, 3-Ethyl-2-(4'-β-D-galactopyranosyloxynaphthyl-1'-vinylene)-5-methylbenzothiazolium iodide]?
A: λ max Chromogen [1]: blue; λ max Substrate [1]: yellow

Q: Which results are given for `CC[n+]1c(C=Cc2ccc3cc(O[C@@H]4O[C@H](CO)[C@H](O)[C@H](O)[C@H]4O)ccc3c2)[se]c2ccccc21` [Compound 24, 3-Ethyl-2-(6'-β-D-galactopyranosyloxynaphthyl-2'-vinylene)-benzoselenazolium iodide]?
A: λ max Chromogen [1]: purple; λ max Substrate [1]: yellow; colour change on addition of β-galactosidase ([4]; 0.3M bicene buffer (pH 7.9), β-galactosidase and a drop of 1N NaOH): turned to purple immediately

Q: What does the source list for `Cc1ccc2oc(C=Cc3ccc(O[C@@H]4O[C@H](CO)[C@H](O)[C@H](O)[C@H]4O)c4ccccc34)[n+](CCC(=O)O)c2c1` [Compound 25, 3-(2"-Carboxyethyl)-2-(4'-β-D-galactopyranosyloxynaphthyl-1'-vinylene)-5-methyl benzoxazolium bromide]?
A: λ max Chromogen [1]: 550; ε × 10^3 Chromogen [1]: 50.1; λ max Shift [1]: 130; λ max Substrate [1]: 420; ε × 10^3 Substrate [1]: 15.8; Kcat [2]: 9.8 × 10^2 mole/min per mole active site; Km [2]: 80 µM; pKa [3]: 6.6

Q: For `CC[n+]1c(C=Cc2ccc(O[C@@H]3O[C@H](CO)[C@H](O)[C@H](O)[C@H]3O)c3ccccc23)ccc2ccccc21` [Compound 26, 1-Ethyl-2-(4'-β-D-galactopyranosyloxynaphthyl-1'-vinylene)-quinoliniumiodide], which “λ max Chromogen” value [1] is on record?
A: The value was 606.

Q: And the “ε × 10^3 Chromogen” value [1]?
A: The value was 70.2.

Q: And the “λ max Shift” value [1]?
A: The value was 172.

Q: What about the “λ max Substrate” value [1] of the same compound?
A: Its value is 434.

Q: What about the “ε × 10^3 Substrate” value [1] of the same compound?
A: Its value is 16.0.

Q: And the pKa [3]?
A: Its pKa is 6.5.

Q: For `CC[n+]1ccc(C=Cc2ccc(O[C@@H]3O[C@H](CO)[C@H](O)[C@H](O)[C@H]3O)c3ccccc23)c2ccccc21` [Compound 29, 1-Ethyl-4-(4'-β-D-galactopyranosyloxynaphthyl-1'-vinylene)-quinoliniumiodide], which “λ max Chromogen” value [1] is on record?
A: The value was “blue”.

Q: And the “λ max Substrate” value [1]?
A: Its value is “yellow”.

Q: And the “colour change on addition of β-galactosidase” value ([4]; 50 mM phosphate buffer (pH 7.4))?
A: The value was “yellow solution turned to blue color”.

Q: What about the “time to colour change on addition of β-galactosidase” value ([4]; 50 mM phosphate buffer (pH 7.4), yellow to blue) of the same compound?
A: Its value is no more than 5 s.
